Source: BindingDB's records for doi:10.1016/j.bmc.2010.03.036 (Chugai Pharmaceutical, 2010)

Assays:
[1] = Antagonist activity at AR in bicalutamide-resistant human LNCAP cells assessed as effect on cell proliferation after 6 days
[2] = Antagonist activity at AR in human LNCAP cells assessed as effect on cell proliferation after 6 days

| Compound | IC50 [1] | IC50 [2] |
| --- | --- | --- |
| CC1(C)C(=O)N(c2ccc(C#N)c(C(F)(F)F)c2)C(=S)N1CCCC(=O)O [4-[3-(4-cyano-3-trifluoromethylphenyl)-5,5-dimethyl-4-oxo-2-thioxoimidazolidin-1-yl]butyric acid] | 400 nM | 2000 nM |
| Cc1c(N2C(=O)C(C)(C)N(CCCS(N)(=O)=O)C2=S)ccc(C#N)c1C(F)(F)F [3-[3-(4-Cyano-2-methyl-3-trifluoromethylphenyl)-5,5-dimethyl-4-oxo-2-thioxoimidazolidin-1-yl]propane-1-sulfonamide] |  | 1100 nM |
| CC1(C)C(=O)N(c2ccc(C#N)c(C(F)(F)F)c2)C(=S)N1CCCS(N)(=O)=O [3-[3-(4-Cyano-3-trifluoromethylphenyl)-5,5-dimethyl-4-oxo-2-thioxoimidazolidin-1-yl]propane-1-sulfonamide] | 18 nM | 160 nM |
| CC1(C)C(=O)N(c2ccc(C#N)c(C(F)(F)F)c2)C(=S)N1CCCNS(N)(=O)=O [3-[3-(4-Cyano-3-trifluoromethylphenyl)-5,5-dimethyl-4-oxo-2-thioxoimidazolidin-1-yl]propylsulfamide] | 89 nM | 780 nM |
| Cc1cc(N2C(=O)C(C)(C)N(CCCS(N)(=O)=O)C2=S)ccc1C#N [3-[3-(4-Cyano-3-methylphenyl)-5,5-dimethyl-4-oxo-2-thioxoimidazolidin-1-yl]propane-1-sulfonamide] | 51 nM | 300 nM |
| CC1(C)C(=O)N(c2ccc(C#N)c(C(F)(F)F)c2)C(=S)N1CCCCS(N)(=O)=O [4-[3-(4-Cyano-3-trifluoromethylphenyl)-5,5-dimethyl-4-oxo-2-thioxoimidazolidin-1-yl]butane-1-sulfonamide] | 110 nM | 1400 nM |
| CC1(C)C(=O)N(c2ccc(C#N)c(C(F)(F)F)c2)C(=S)N1CCCNC(N)=O [3-[3-(4-Cyano-3-trifluoromethylphenyl)-5,5-dimethyl-4-oxo-2-thioxoimidazolidin-1-yl]propylurea] | 200 nM | 1600 nM |
| CC1(C)C(=O)N(c2ccc(C#N)c(Cl)c2)C(=S)N1CCCS(N)(=O)=O [3-[3-(3-Chloro-4-cyanophenyl)-5,5-dimethyl-4-oxo-2-thioxoimidazolidin-1-yl]propane-1-sulfonamide] | 12 nM | 410 nM |
| CC1(C)C(=O)N(c2ccc(C#N)c(C(F)(F)F)c2)C(=S)N1CCS(N)(=O)=O [2-[3-(4-Cyano-3-trifluoromethylphenyl)-5,5-dimethyl-4-oxo-2-thioxoimidazolidin-1-yl]ethanesulfonamide] | 79 nM |  |
| CN(C)S(=O)(=O)CCCN1C(=S)N(c2ccc(C#N)c(C(F)(F)F)c2)C(=O)C1(C)C [3-[3-(4-Cyano-3-trifluoromethylphenyl)-5,5-dimethyl-4-oxo-2-thioxoimidazolidin-1-yl]propane-1-sulfonic aciddimethylamide] |  | 3700 nM |
| CNS(=O)(=O)CCCN1C(=S)N(c2ccc(C#N)c(C(F)(F)F)c2)C(=O)C1(C)C [3-[3-(4-Cyano-3-trifluoromethylphenyl)-5,5-dimethyl-4-oxo-2-thioxoimidazolidin-1-yl]propane-1-sulfonic acidmethylamide] | 30 nM | 190 nM |
| CC1(C)C(=O)N(c2ccc(C#N)c(C(F)(F)F)c2)C(=S)N1CCCC(N)=O [4-[3-(4-Cyano-3-trifluoromethylphenyl)-5,5-dimethyl-4-oxo-2-thioxoimidazolidin-1-yl]butyramide] | 55 nM | 400 nM |
